This passage reports Ki results from patent US8530489B2 (Vertex Pharmaceuticals Incorporated, priority 2006, dated 2013).

Chain of PLK1 (P53350 whole entry): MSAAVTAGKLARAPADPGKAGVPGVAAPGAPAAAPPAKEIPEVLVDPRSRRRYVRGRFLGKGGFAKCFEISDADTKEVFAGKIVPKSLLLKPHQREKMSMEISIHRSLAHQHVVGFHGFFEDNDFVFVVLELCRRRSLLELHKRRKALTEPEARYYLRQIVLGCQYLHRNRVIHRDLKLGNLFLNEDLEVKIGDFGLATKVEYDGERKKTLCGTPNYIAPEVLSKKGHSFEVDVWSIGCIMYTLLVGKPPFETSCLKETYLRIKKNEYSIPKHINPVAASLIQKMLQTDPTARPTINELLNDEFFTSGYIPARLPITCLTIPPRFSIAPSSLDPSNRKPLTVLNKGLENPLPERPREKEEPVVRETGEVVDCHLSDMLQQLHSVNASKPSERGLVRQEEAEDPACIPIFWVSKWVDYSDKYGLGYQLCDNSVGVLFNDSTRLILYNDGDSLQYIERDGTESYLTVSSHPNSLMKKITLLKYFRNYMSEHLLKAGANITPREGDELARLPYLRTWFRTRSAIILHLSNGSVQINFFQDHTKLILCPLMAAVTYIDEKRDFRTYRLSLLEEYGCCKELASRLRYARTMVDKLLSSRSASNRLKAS

In this assay the target is PLK1 (Homo sapiens, UniProt P53350). Nature of the assay: PLK1 Inhibition Assay I (radioactive-phosphate incorporation). In kind it is biochemical. To be noted: Ki(app); PLK1 Inhibition Assay I or II (table does not say which). How it is done:
The compounds of the present invention are evaluated as inhibitors of human PLK kinase using the following assays.
Compounds were screened for their ability to inhibit PLK1 using a radioactive-phosphate incorporation assay. Assays were carried out in a mixture of 25 mM HEPES (pH 7.5), 10 mM MgCl2, and 1 mM DTT. Final substrate concentrations were 350 μM [γ-33P]ATP (136 mCi 33P ATP/mmol ATP, Amersham Pharmacia Biotech/Sigma Chemicals) and 450 μM peptide (KKKISDELMDATFADQEAK) [SEQ. ID:1]. Assays were carried out at 25° C. in the presence of 2 nM PLK1. An assay stock buffer solution was prepared containing all of the reagents listed above, with the exception of ATP and the test compound of interest. 30 μL of the stock solution was placed in a 96 well plate followed by addition of 2 μL of DMSO stock containing serial dilutions of the test compound (typically starting from a final concentration of 10 μM with 2-fold serial dilutions) in duplicate (final DMSO concentration 5%). The plate was pre-incubated for 10 minutes at 25° C. and the reaction initiated by addition of 8 μL [γ-33P]ATP (final concentration 350 μM).
The reaction was stopped after 240 minutes by the addition of 100 μL 0.14M phosphoric acid. A multiscreen phosphocellulose filter 96-well plate (Millipore, Cat No. MAPHN0B50) was pretreated with 100 μL 0.1 M phosphoric acid prior to the addition of 125 μL of the stopped assay mixture. The plate was washed with 4×200 μL 0.1 M phosphoric acid. After drying, 100 μL Optiphase ‘SuperMix’ liquid scintillation cocktail (Perkin Elmer) was added to the well prior to scintillation counting (1450 Microbeta Liquid Scintillation Counter, Wallac).
After removing mean background values for all of the data points, Ki(app) data were calculated from non-linear regression analysis of the initial rate data using the Prism software package (GraphPad Prism version 3.0cx for Macintosh, GraphPad Software, San Diego Calif., USA).
For the compound `CC[C@@H](O)C(=O)N1CCC([C@@H](C)Nc2ncc(C#N)c(-c3c[nH]c4ncc(C(F)(F)F)cc34)n2)CC1` [Compound I-219, 2-((R)-1-(1-((R)-2-hydroxybutanoyl)piperidin-4-yl)ethylamino)-4-(5-(trifluoromethyl)-1H-pyrrolo[2,3-b]pyridin-3-yl)pyrimidine-5-carbonitrile], the Ki was below 3 nM. Turning to `CC(C)CNc1ncc(C#N)c(-c2c[nH]c3ncc(C(F)(F)F)cc23)n1` [Compound I-36, 2-(isobutylamino)-4-(5-(trifluoromethyl)-1H-pyrrolo[2,3-b]pyridin-3-yl)pyrimidine-5-carbonitrile], the Ki lay in the range of 3 to 40 nM. As to `CC(Nc1ncc(C#N)c(-c2c[nH]c3ncc(C(F)(F)F)cc23)n1)[C@H]1C[C@H](O)C1` (stereo partly drawn) [Compound I-269, 2-((S)-1-((1r,3S)-3-hydroxycyclobutyl)ethylamino)-4-(5-(trifluoromethyl)-1H-pyrrolo[2,3-b]pyridin-3-yl)pyrimidine-5-carbonitrile], the Ki lay within 3 to 40 nM.

In the case of `C[C@@H](Nc1ncc(C#N)c(-c2c[nH]c3ncc(C(F)(F)F)cc23)n1)C1CCN(C(=O)[C@@H](N)CO)CC1` [Compound I-239, 2-((R)-1-(1-((S)-2-amino-3-hydroxypropanoyl)piperidin-4-yl)ethylamino)-4-(5-(trifluoromethyl)-1H-pyrrolo[2,3-b]pyridin-3-yl)pyrimidine-5-carbonitrile], the Ki is below 3 nM.

Regarding `N#Cc1cnc(NCCc2ccccc2)nc1-c1c[nH]c2ncc(C(F)(F)F)cc12` [Compound I-7, 2-(phenethylamino)-4-(5-(trifluoromethyl)-1H-pyrrolo[2,3-b]pyridin-3-yl)pyrimidine-5-carbonitrile], the Ki was above 40 nM. With `C[C@@H](Nc1ncc(C#N)c(-c2c[nH]c3ncc(C(F)(F)F)cc23)n1)C1CCN(C(=O)C(C)(C)O)CC1` [Compound I-206, 2-((R)-1-(1-(2-hydroxy-2-methylpropanoyl)piperidin-4-yl)ethylamino)-4-(5-(trifluoromethyl)-1H-pyrrolo[2,3-b]pyridin-3-yl)pyrimidine-5-carbonitrile], the Ki was below 3 nM. With `CCC(Nc1ncc(C#N)c(-c2c[nH]c3ncc(C(F)(F)F)cc23)n1)C1CCN(CC#N)CC1` (stereo not drawn) [Compound I-173, 2-(1-(1-(cyanomethyl)piperidin-4-yl)propylamino)-4-(5-(trifluoromethyl)-1H-pyrrolo[2,3-b]pyridin-3-yl)pyrimidine-5-carbonitrile], the Ki was below 3 nM. Next, `CC(C)[C@@H](N)CC(=O)N1CCC([C@@H](C)Nc2ncc(C#N)c(-c3c[nH]c4ncc(C(F)(F)F)cc34)n2)CC1` [Compound I-247, 2-((R)-1-(1-((S)-3-amino-4-methylpentanoyl)piperidin-4-yl)ethylamino)-4-(5-(trifluoromethyl)-1H-pyrrolo[2,3-b]pyridin-3-yl)pyrimidine-5-carbonitrile]: below 3 nM; `N#Cc1cnc(Sc2ccc(Br)cc2)nc1-c1c[nH]c2ncc(C(F)(F)F)cc12` [II-8, 2-(4-bromophenylthio)-4-(5-(trifluoromethyl)-1H-pyrrolo[2,3-b]pyridin-3-yl)pyrimidine-5-carbonitrile]: above 40 nM; `N#Cc1cnc(NC2CCC(O)CC2)nc1-c1c[nH]c2ncc(C(F)(F)F)cc12` (stereo not drawn) [Compound I-95, 2-(4-hydroxycyclohexylamino)-4-(5-(trifluoromethyl)-1H-pyrrolo[2,3-b]pyridin-3-yl)pyrimidine-5-carbonitrile]: 3 to 40 nM. The value for `C[C@@H](Nc1ncc(C#N)c(-c2c[nH]c3ncc(C(F)(F)F)cc23)n1)C1CCN(C(=O)CCO)CC1` [Compound I-216, 2-((R)-1-(1-(3-hydroxypropanoyl)piperidin-4-yl)ethylamino)-4-(5-(trifluoromethyl)-1H-pyrrolo[2,3-b]pyridin-3-yl)pyrimidine-5-carbonitrile] was below 3 nM; that for `C[C@H](O)[C@@H](CO)Nc1ncc(C#N)c(-c2c[nH]c3ncc(C(F)(F)F)cc23)n1` [Compound I-108, 2-((2R,3S)-1,3-dihydroxybutan-2-ylamino)-4-(5-(trifluoromethyl)-1H-pyrrolo[2,3-b]pyridin-3-yl)pyrimidine-5-carbonitrile] was 3 to 40 nM; that for `C[C@@H](Nc1ncc(C#N)c(-c2c[nH]c3ncc(C(F)(F)F)cc23)n1)c1ccc(O[C@@H]2CCN(C)C2)nc1` [Compound I-300, 2-(I-1-(6-(I-1-methylpyrrolidin-3-yloxy)pyridin-3-yl)ethylamino)-4-(5-(trifluoromethyl)-1H-pyrrolo[2,3-b]pyridin-3-yl)pyrimidine-5-carbonitrile] was below 3 nM. The value for `COCC(Nc1ncc(C#N)c(-c2c[nH]c3ncc(C(F)(F)F)cc23)n1)C(C)C` (stereo not drawn) [Compound I-110, 2-(1-methoxy-3-methylbutan-2-ylamino)-4-(5-(trifluoromethyl)-1H-pyrrolo[2,3-b]pyridin-3-yl)pyrimidine-5-carbonitrile] was 3 to 40 nM; that for `C[C@@H](Nc1ncc(C#N)c(-c2c[nH]c3ncc(C(F)(F)F)cc23)n1)C(=O)NCCO` [IA-12, (2R)-2-(5-cyano-4-(5-(trifluoromethyl)-1H-pyrrolo[2,3-b]pyridin-3-yl)pyrimidin-2-ylamino)-N-(2-hydroxyethyl)-propanamide] was 3 to 40 nM. On to `C[C@@H](Nc1ncc(C#N)c(-c2c[nH]c3ncc(C(F)(F)F)cc23)n1)c1ccc(N2CCCN(C)CC2)nc1` [Compound I-292, 2-((R)-1-(6-(4-methyl-1,4-diazepan-1-yl)pyridin-3-yl)ethylamino)-4-(5-(trifluoromethyl)-1H-pyrrolo[2,3-b]pyridin-3-yl)pyrimidine-5-carbonitrile], for which the Ki was below 3 nM. Next, `CC(Nc1ncc(C#N)c(-c2c[nH]c3ncc(C(F)(F)F)cc23)n1)C1(F)CCN(CC#N)CC1` (stereo not drawn) [Compound I-238, 2-(1-(1-(cyanomethyl)-4-fluoropiperidin-4-yl)ethylamino)-4-(5-(trifluoromethyl)-1H-pyrrolo[2,3-b]pyridin-3-yl)pyrimidine-5-carbonitrile]: below 3 nM; `N#Cc1cnc(NCCN2CCSCC2)nc1-c1c[nH]c2ncc(C(F)(F)F)cc12` [Compound I-86, 2-(2-thiomorpholinoethylamino)-4-(5-(trifluoromethyl)-1H-pyrrolo[2,3-b]pyridin-3-yl)pyrimidine-5-carbonitrile]: above 40 nM. As for `CCC(Nc1ncc(C#N)c(-c2c[nH]c3ncc(C(F)(F)F)cc23)n1)C1CCN(C(C)=O)CC1` (stereo not drawn) [Compound I-174, 2-(1-(1-acetylpiperidin-4-yl)propylamino)-4-(5-(trifluoromethyl)-1H-pyrrolo[2,3-b]pyridin-3-yl)pyrimidine-5-carbonitrile], the Ki is below 3 nM. As for `CC(C)(Nc1ncc(C#N)c(-c2c[nH]c3ncc(C(F)(F)F)cc23)n1)C(=O)NCCC(F)(F)F` [IA-1, 2-(5-cyano-4-(5-(trifluoromethyl)-1H-pyrrolo[2,3-b]pyridin-3-yl)pyrimidin-2-ylamino)-2-methyl-N-(3,3,3-trifluoropropyl)propanamide], the Ki was above 40 nM. For `COc1ccc(C(C)Nc2ncc(C#N)c(-c3c[nH]c4ncc(C(F)(F)F)cc34)n2)cn1` (stereo not drawn) [Compound I-52, 2-(1-(6-methoxypyridin-3-yl)ethylamino)-4-(5-(trifluoromethyl)-1H-pyrrolo[2,3-b]pyridin-3-yl)pyrimidine-5-carbonitrile], the Ki was below 3 nM.
